This is an account of results in patent US20150366839A1, “Schisantherin A for the treatment of neurodegenerative diseases” (priority 2014, published 2015).

For one data set, the system named is DA neurons in zebrafish. As to the kind of experiment: Anti-TH whole-mount immunostaining, 6-OHDA-induced DA neuron loss. The class given is in vivo. The settings on record: 10 μM co-treatment, 250 μM 6-OHDA, 2 days. The protocol: The wild type zebrafish was used for this study.
Zebrafish at one dpf were exposed to 250 μM 6-OHDA in the presence or absence of 10 μM Schi A or 3 μM nomifensine (Nom, a DAT (dopamine transporter) inhibitor used as a positive control) for 2 days. Then zebrafish were collected for immunostaining to detect the DA neurons. Zebrafish were fixed in 4% paraformaldehyde in PBS for 30 min, rinsed, and stored at −20° C. in 100% MtOH. Whole-mount immunostaining was done by standard methods (Zhang, Cheang et al. 2011). Briefly, paraformaldehyde fixed samples were blocked (2% goat serum and 0.1% BSA in PBST,) for 1 h at room temperature. A mouse monoclonal anti-tyrosine hydroxylase antibody (1:200 diluted in blocking buffer) was used as the primary antibody and incubated overnight with the sample at 4° C. […] Semi-quantification TH^+ cells were assessed by an investigator blinded to drug treatment history of zebrafish using Image-Pro Plus 6.0 software (Media Cybernetics, Silver Spring, Md., USA). Results are expressed as percentage of area of TH^+ cells in untreated control group.
To further evaluate the neuroprotective effect of SchiA in vivo, the inventors examined the DA neurons in zebrafish by whole-mount immunofluorescent staining with an antibody against tyrosine hydroxylase (TH). […] Data is expressed as percentage of the control group. […]

The target of a further data set is P-gp (Homo sapiens, UniProt P08183). The settings on record: Pan, Lu et al. 2006; cited from earlier work.
The test system of a further data set is SH-SY5Y cells. As to the kind of experiment: MTT neuroprotection against 6-OHDA-induced cytotoxicity. It is filed as cell-based, Human. As for the experimental part:
Human neuroblastoma SH-SY5Y cells were purchased from the American Type Culture Collection (ATCC, Manassas, Va., USA) and cultured in a humidified 5% (v/v) CO2 atmosphere in 37° C. in Dulbecco's Modified Eagle Medium (DMEM) (Life technologies, NY, USA) supplemented with 10% FBS, 1% penicillin (100 U/mL) and streptomycin (100 μg/mL). All experiments were carried out 48 h after the cells were seeded.
Cell viability was determined by 3-(4,5-dimethyl-2-thiazolyl) 2,5-diphenyl-2H-tetrazolium bromide (MTT) assay (Sigma-Aldrich, USA). SH-SY5Y cells were seeded in 96-well plates (1×10^4 cells/well) for 48 h. SH-SY5Y cells were pre-treated with different concentrations of the five lignans (i.e. Schizandrin A, Schizandrin B, SC, Schizandrol A and SchiA) for 12 h and the cell viability was checked by MTT assay. Otherwise, SH-SY5Y cells were pre-treated with different concentrations of the five lignans for 12 h and then exposed to 400 μM 6-OHDA for 4 h. Cells were incubated at 37° C. for 4 h in 0.5 mg/mL MTT solution (prepared in serum free DMEM medium). The medium was then removed, and 100 μL of DMSO was added to each well to dissolve the violet-formazan crystals. The absorbance at 570 nm with 655 nm as a reference wavelength was measured by a multi-label counter (Wallac VICTOR3TMV, Perkin Elmer, Netherlands). Cell viability was expressed as a percentage of the value of the cells without 6-OHDA treatment. The LC50 and EC50 were calculated by GraphPad Prism V5.0 (GraphPad Software, Inc., San Diego, Calif.).
To further study the neuroprotective activities of the five lignans against 6-OHDA-induced cytotoxicity, cells were treated with various concentrations (3, 6, 12, 25, 50 and 100 μM) of the tested compounds for 12 h before exposed to 400 μM 6-OHDA for 4 h.

P-gp, sequence (P08183 whole entry): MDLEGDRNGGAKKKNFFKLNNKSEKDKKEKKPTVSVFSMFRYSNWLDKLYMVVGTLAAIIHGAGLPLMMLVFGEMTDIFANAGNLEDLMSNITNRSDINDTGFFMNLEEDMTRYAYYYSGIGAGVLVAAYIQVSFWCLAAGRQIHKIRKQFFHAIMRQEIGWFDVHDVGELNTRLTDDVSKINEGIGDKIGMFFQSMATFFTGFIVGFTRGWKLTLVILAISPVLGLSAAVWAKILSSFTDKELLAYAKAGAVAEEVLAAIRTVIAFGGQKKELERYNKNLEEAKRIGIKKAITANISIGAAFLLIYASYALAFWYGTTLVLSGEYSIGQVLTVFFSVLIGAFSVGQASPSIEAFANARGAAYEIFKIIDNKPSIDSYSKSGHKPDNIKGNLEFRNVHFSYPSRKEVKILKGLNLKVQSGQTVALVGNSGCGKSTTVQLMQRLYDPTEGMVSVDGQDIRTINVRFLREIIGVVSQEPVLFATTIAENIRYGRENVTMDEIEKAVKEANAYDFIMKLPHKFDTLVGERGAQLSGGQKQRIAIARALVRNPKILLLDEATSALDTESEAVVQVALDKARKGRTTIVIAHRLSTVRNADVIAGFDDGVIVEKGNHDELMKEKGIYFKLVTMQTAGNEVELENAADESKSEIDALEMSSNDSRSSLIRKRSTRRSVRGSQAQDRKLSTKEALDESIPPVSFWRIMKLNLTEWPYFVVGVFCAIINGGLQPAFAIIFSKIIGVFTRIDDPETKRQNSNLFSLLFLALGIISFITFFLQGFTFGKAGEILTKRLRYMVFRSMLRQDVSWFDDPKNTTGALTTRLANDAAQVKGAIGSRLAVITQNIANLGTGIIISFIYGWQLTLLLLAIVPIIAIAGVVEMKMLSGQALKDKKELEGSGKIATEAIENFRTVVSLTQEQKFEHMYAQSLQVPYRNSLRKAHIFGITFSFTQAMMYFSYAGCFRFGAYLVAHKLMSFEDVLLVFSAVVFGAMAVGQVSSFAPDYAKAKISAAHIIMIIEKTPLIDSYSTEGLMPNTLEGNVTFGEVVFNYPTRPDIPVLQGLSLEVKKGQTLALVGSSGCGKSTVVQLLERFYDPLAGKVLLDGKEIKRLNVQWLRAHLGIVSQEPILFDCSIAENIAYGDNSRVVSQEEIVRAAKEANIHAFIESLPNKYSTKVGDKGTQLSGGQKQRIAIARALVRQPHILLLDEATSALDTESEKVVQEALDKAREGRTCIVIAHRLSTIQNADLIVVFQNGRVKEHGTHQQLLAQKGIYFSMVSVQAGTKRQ

Consider `COc1cc2c(c(OC)c1OC)-c1c(cc3c(c1OC)OCO3)C[C@H](C)[C@](C)(O)[C@H]2OC(=O)c1ccccc1` [SchiA, Schisantherin A], for which the “6-OHDA-induced dopaminergic neuron loss (area of TH+ cells)” value in the data set with DA neurons in zebrafish was “attenuate the dopaminergic neuron loss induced by 6-OHDA almost to the normal level”. Also, at P-gp, the P-gp inhibition result is reported as “potent P-gp inhibitor”. Moreover, in the data set with SH-SY5Y cells (3, 6, 12, 25, 50 and 100 μM for 12 h before 400 μM 6-OHDA 4 h), the “protection against 6-OHDA-induced damage (cell viability)” value is given as “protected SH-SY5Y cells against 6-OHDA-induced damage in a dose-dependent manner”. The EC50 in the data set on SH-SY5Y cells (pre-treated 12 h, then 400 μM 6-OHDA 4 h) was found to be 8.1 µM.

What is called EC50 is the concentration that produces a half-maximal response.
